US20080009451A1, “Applications of kidney secreted bone growth factor and pharmaceutical use of flavonol and flavonol glycosides for stimulating the secretion of kidney secreted bone growth factor” (priority 2005, published 2008)
Entries after “also recorded” stand apart in the source; their conditions may differ.

How the values were obtained:
opossum kidney (OK) cell = test: Renal tubular (OK) cell proliferation, CellTiter 96 at OD570; type: cell-based; details: compound added to OK cells, 0-60 nM (0-79 nM) or various concentrations, three days incubation (24 hours in Example 3.2)
Description: Flavonol Increased Renal Tubular Cell Proliferation Ok cells at 1×10^4/ml (0.1 ml) were added into 96 wells plate. Several flavonol ? Fisetin, ? Kaempferol, ? quercetin a ? ? icariin or the control flavonoid (which are not flavonol) such as apigenin and kaempferol-3-methyl ether were added to make the final concentration at 0-60 nM. (0-79 nM)
After three days incubation, the cell growth was examined with CellTiter 96 (Non-Radioactive Cell Proliferation Assay kit) (Promega) at OD570 nm. The higher OD, the higher the numbers of living cells. (FIG. 2.)
OK cell, MC 3T3 E1 and HHF cells at 2×10^4/ml (0.1 ml) were added into 96 well plates, with various concentration of kaempferol was applied. After the cells were cultured for 3 days, cell growth was examined.
Preparation of OKM and CM: OK cells at 2×10^4/ml (0.1 ml) mixed with various concentrations of kaempferol were incubated in 96 well plate. The medium made of the same condition as above without OK cells was also incubated in the 96 well plates. After 24 hour, the mediums were collected. The OK cell growth was examined.

[1] = test system: MC 3T3 E1 cell (osteoblast); test: Osteoblast proliferation in OK cell conditioned medium (OKM); type: cell-based; details: OK cells incubated 24 hours with compound, 80 μl medium on MC 3T3 E1, 3 days
Description: In this example, OK cells were used as the kidney tubular cell. OK cells at 6×10^4ml (3 ml) were added into 6 wells plate and various concentrations of flavonol, flavonol glycosides, apigenin and isokaempferol were applied. At the same time, the control culture medium (CM) with the same condition as above but without cells was prepared. After 24 hours incubation, the medium was collected for osteoblast culture. The OK cell growth was examined as discussed above. In this example, the osteoblast was the MC 3T3 E1 cell. MC 3T3 E1 at 1×10^5/ml (20 μl) was added into 96 wells plate. Additionally, 80 μL of OKM or CM were recruited. After 3 days incubation, the osteoblast growth was examined as discussed above. […] OK cells at 2×10^4/ml (0.1 ml) mixed with various concentrations of kaempferol were incubated in 96 well plate. The medium made of the same condition as above without OK cells was also incubated in the 96 well plates. After 24 hour, the mediums were collected. The OK cell growth was examined. MC 3T3 E1 cells at 1×10^5/ml (20 μl) were applied into 96 well plate along with OKM and CM (80 μl). After 3 days incubation, the cell numbers were examined. The preparation of OKM and CM: OK cells at 6×10^4/ml (3 ml) were incubated in 6 well plates over night. After the medium was removed, the fresh medium with or without 70 nM kaempferol was added. The control medium (CM) was prepared under the same condition, without OK cells. After incubation for 24 hour, all medium were collected for MC 3T3 E1 and HFF cell growth experiments. MC 3T3 E1 and HFF cell at 1×10^5/ml were added (20 μl) into 96 well plates. In addition, 80 μl of OKM, CM and fresh culture medium with and without kaempferol were applied.

[2] = test system: human heart fibroblast (HHF/HFF); test: Fibroblast proliferation in OK cell conditioned medium (OKM); type: cell-based; details: OK cells incubated 24 hours with compound; medium on human heart fibroblast; 3 days
Description: In this example, OK cells were used as the kidney tubular cell. OK cells at 6×10^4ml (3 ml) were added into 6 wells plate and various concentrations of flavonol, flavonol glycosides, apigenin and isokaempferol were applied. At the same time, the control culture medium (CM) with the same condition as above but without cells was prepared. After 24 hours incubation, the medium was collected for osteoblast culture. The OK cell growth was examined as discussed above. The preparation of OKM and CM: OK cells at 6×10^4/ml (3 ml) were incubated in 6 well plates over night. After the medium was removed, the fresh medium with or without 70 nM kaempferol was added. The control medium (CM) was prepared under the same condition, without OK cells. After incubation for 24 hour, all medium were collected for MC 3T3 E1 and HFF cell growth experiments. MC 3T3 E1 and HFF cell at 1×10^5/ml were added (20 μl) into 96 well plates. In addition, 80 μl of OKM, CM and fresh culture medium with and without kaempferol were applied.

[3] = test system: MC 3T3 E1 cell (osteoblast); test: Direct effect of compound on osteoblast proliferation; type: cell-based; details: medium incubated without kidney cells; 70 nM or various concentrations; 3 days
Description: (§1) OK cell, MC 3T3 E1 and HHF cells at 2×10^4/ml (0.1 ml) were added into 96 well plates, with various concentration of kaempferol was applied. After the cells were cultured for 3 days, cell growth was examined. The preparation of OKM and CM: OK cells at 6×10^4/ml (3 ml) were incubated in 6 well plates over night. After the medium was removed, the fresh medium with or without 70 nM kaempferol was added. The control medium (CM) was prepared under the same condition, without OK cells. After incubation for 24 hour, all medium were collected for MC 3T3 E1 and HFF cell growth experiments. MC 3T3 E1 and HFF cell at 1×10^5/ml were added (20 μl) into 96 well plates. In addition, 80 μl of OKM, CM and fresh culture medium with and without kaempferol were applied.

[4] = test system: HHF cells (human heart fibroblast); test: Direct effect of compound on fibroblast proliferation; type: cell-based; details: medium incubated without kidney cells; 70 nM kaempferol; 3 days
Description: as §1

BMPR II = BMPR II on OK cells, immunostain and Western blot; type: cell-based, opossum
From the text: BMPR I was not found in OK cells sample, BMPR II was found on OK cell. […] Both FIGS. 6A and 6B indicate that kaempferol increases the quantity of BMPR II on OK cell.

BMP7 = BMP7 in kaempferol conditioned OKM, immune-precipitation and Western blot; type: cell-based, opossum; details: Western blot; not been repeated yet
From the text: (§2) Detail of Immune-Precipitation and Detail of Western Blot Used Standard Methods and Anti-BMP 2/4 and 7.

BMP2/4 = BMP2/4 in kaempferol conditioned OKM, immune-precipitation and Western blot; type: cell-based, opossum; details: Western blot; not been repeated yet
From the text: as §2

P63 = P63 (63 kDa protein) in kaempferol conditioned OKM, over-exposed anti-BMP2/4 Western blot; type: cell-based, opossum; details: over-exposed film; not been repeated yet
From the text: Detail of Immune-Precipitation and Detail of Western Blot Used Standard Methods and Anti-BMP 2/4 and 7. 3). […] According to the instruction from the manufacture, anti-BMP2/4 antibody may react with BMP8, 9 and 10 or other proteins. The P63 may be BMP 8, 9, 10 or another protein related to the BMP2/4.

[5] = test system: MC 3T3 E1 cell (osteoblast); test: Osteoblast proliferation in human kidney tubular cell (HK-2) conditioned medium (HKM); type: cell-based; details: HK-2 cells, 70 nM kaempferol, 24 hours; medium on MC 3T3 E1 for 3 days
Description: Human kidney tubular cells (HK-2) with the concentration at 1×10^5/ml (1 mL) grew in 24 well plate overnight. The cells in the wells were washed by 1 mL of PBS three times. Fresh culture medium (80 μL) without FBS but contained 0 and 70 nM kaempferol were added. The same medium without cells also prepared as above. After the samples were cultured for 24 hours, the medium was collected and named respectively 70 […] 0CM. They were used for osteoblast and fibroblast culture. MC 3T3 E1 and HFF cell at 1×10^5/ml were added (20 μl) into 96 wells plate. In addition, 80 μl of 70 […] 0CM were applied.

[6] = animal models; cited from earlier work
[7] = acute renal ischemia, unilateral uretheral obstruction, diabetic nephropathy, lupus nephritis models; cited from earlier work

Molecule: O=c1cc(-c2ccc(O)cc2)oc2cc(O)cc(O)c12 [Apigenin, apigenin]
- OK cell proliferation (optic density) (opossum kidney (OK) cell): did not increase OK cell proliferation
- OK cell proliferation (optic density) (opossum kidney (OK) cell; listed as apigenin): showed no effect
- osteoblast (MC 3T3 E1) proliferation in compound conditioned-OKM compared with control OKM [1]: did not increase osteoblast proliferation
- fibroblast proliferation in compound conditioned-OKM [2]: do not increase human heard fibroblast proliferation

Molecule: O=c1c(O)c(-c2ccc(O)cc2)oc2cc(O)cc(O)c12 [Kaempferol]
- OK cell proliferation (optic density) (opossum kidney (OK) cell): only increased OK cell proliferation
- OK cell proliferation (optic density) (opossum kidney (OK) cell; listed as kaempferol): significantly increased; also recorded: showed dose response aspect
- osteoblast (MC 3T3 E1) proliferation in compound conditioned-OKM compared with control OKM [1]: increasing osteoblast proliferation with a dose response manner; also recorded: additionally promoted MC 3T3 E1 cell proliferation
- osteoblast (MC 3T3 E1) proliferation in compound conditioned-OKM compared with control OKM ([1]; listed as kaempferol): significantly increased compared with that in the control OKM
- fibroblast proliferation in compound conditioned-OKM [2]: also did not promote HHF cell proliferation
- MC 3T3 E1 proliferation in control medium (CM) or fresh medium containing compound [3]: did not promote MC 3T3 E1 and HHF cell proliferation
- fibroblast (HHF) proliferation in control medium (CM) or fresh medium containing compound [4]: did not increase human fibroblast proliferation; also recorded: did not promote MC 3T3 E1 and HHF cell proliferation
- quantity of BMPR II on OK cells (Western blot) (BMPR II; Western blot with anti-BMPR II): increased the quantity of BMPR II on OK cells
- density of BMPR II on OK cells (immunostain) (BMPR II; immunostain with anti-BMP receptor II): increased the density of BMPR II on OK cells
- quantity of BMP7 in OKM (BMP7): increased by dose response of kaempferol; also recorded: increased in dose response to kaempferol concentration
- quantity of BMP2/4 in OKM (BMP2/4): increased by dose response of kaempferol
- quantity of P63 in OKM (P63): increased with dose response of kaempferol; also recorded: also increased with the dose of kaempferol
- MC 3T3 E1 proliferation in kaempferol conditioned HKM compared with 0HKM [5]: increased the promotion; also recorded: additionally increases the promotion

Molecule: COc1c(-c2ccc(O)cc2)oc2cc(O)cc(O)c2c1=O [isokaempferol, kaempferol-3-methyl ether]
- OK cell proliferation (optic density) (opossum kidney (OK) cell): did not increase OK cell proliferation
- OK cell proliferation (optic density) (opossum kidney (OK) cell; listed as kaempferol-3-methyl ether): showed no effect
- osteoblast (MC 3T3 E1) proliferation in compound conditioned-OKM compared with control OKM [1]: did not increase osteoblast proliferation
- fibroblast proliferation in compound conditioned-OKM [2]: do not increase human heard fibroblast proliferation

B1: BMP-7: Bone Morphogenic Protein 7, secreted protein (protein, UniProt P18075 293-431, looked up)
Bone morphogenetic protein 7: STGSKQRSQNRSKTPKNQEALRMANVAENSSSDQRQACKKHELYVSFRDLGWQDWIIAPEGYAAYYCEGECAFPLNSYMNATNHAIVQTLVHFINPETVPKPCCAPTQLNAISVLYFDDSSNVILKKYRNMVVRACGCH
- effect on osteoporosis associated with renal failure [6]: benefit
- prevention of renal failure [7]: prevent renal failure
